Article PMC8800111 (The Journal of Biological Chemistry, 2021)

Assays:
Assay type in all cases: cell-based
[1] = molecular target: proteins of U3A human fibrosarcoma cells (4462 proteins detected) (Homo sapiens, UniProt Q9NRZ9); conditions: protein HELLS; soluble abundance after heat, U3A cells
[2] = molecular target: proteins of U3A human fibrosarcoma cells (4462 proteins detected) (Homo sapiens, UniProt P46939); conditions: protein UTRN; soluble abundance after heat, U3A cells
[3] = molecular target: proteins of U3A human fibrosarcoma cells (4462 proteins detected) (Homo sapiens, UniProt Q15041); conditions: protein ARL6IP1; U3A cells
[4] = molecular target: proteins of U3A human fibrosarcoma cells (4462 proteins detected) (Homo sapiens, UniProt Q92797); conditions: protein SYMPK; soluble abundance after heat, U3A cells
[5] = molecular target: proteins of U3A human fibrosarcoma cells (4462 proteins detected) (Homo sapiens, UniProt Q27J81); conditions: protein INF2, U3A cells
[6] = molecular target: proteins of U3A human fibrosarcoma cells (4462 proteins detected) (Homo sapiens, UniProt P50995); conditions: protein ANXA11; U3A cells
[7] = molecular target: proteins of U3A human fibrosarcoma cells (4462 proteins detected) (Homo sapiens, UniProt P36507); conditions: protein MAP2K2; U3A cells
[8] = molecular target: proteins of U3A human fibrosarcoma cells (4462 proteins detected) (Homo sapiens, UniProt Q9BVW5); conditions: protein TIPIN, U3A cells
Sequence of proteins of U3A human fibrosarcoma cells (4462 proteins detected) (Homo sapiens, UniProt Q9BVW5) (Q9BVW5 whole entry): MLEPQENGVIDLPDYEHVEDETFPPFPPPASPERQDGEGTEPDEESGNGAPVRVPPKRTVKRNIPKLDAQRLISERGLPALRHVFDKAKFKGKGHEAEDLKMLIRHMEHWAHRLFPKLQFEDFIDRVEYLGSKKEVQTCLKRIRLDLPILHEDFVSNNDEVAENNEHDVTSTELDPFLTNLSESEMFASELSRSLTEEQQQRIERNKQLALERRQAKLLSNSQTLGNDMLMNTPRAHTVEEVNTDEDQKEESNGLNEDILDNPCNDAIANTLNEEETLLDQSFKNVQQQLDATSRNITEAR

[9] = molecular target: proteins of U3A human fibrosarcoma cells (4462 proteins detected) (Homo sapiens, UniProt P36542); conditions: protein ATP5C1; U3A cells
Sequence of proteins of U3A human fibrosarcoma cells (4462 proteins detected) (Homo sapiens, UniProt P36542) (P36542 26-298): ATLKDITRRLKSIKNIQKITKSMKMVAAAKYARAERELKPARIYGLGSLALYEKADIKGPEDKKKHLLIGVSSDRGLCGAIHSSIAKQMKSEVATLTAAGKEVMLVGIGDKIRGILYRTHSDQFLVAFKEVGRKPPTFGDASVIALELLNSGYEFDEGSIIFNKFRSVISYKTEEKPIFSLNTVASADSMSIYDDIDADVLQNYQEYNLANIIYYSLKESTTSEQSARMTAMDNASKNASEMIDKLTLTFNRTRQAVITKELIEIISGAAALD

[10] = molecular target: proteins of U3A human fibrosarcoma cells (4462 proteins detected) (Homo sapiens, UniProt Q9NYY8); conditions: protein FASTKD2; U3A cells
[11] = molecular target: proteins of U3A human fibrosarcoma cells (4462 proteins detected) (Homo sapiens, UniProt P62937); conditions: protein PPIA
Sequence of proteins of U3A human fibrosarcoma cells (4462 proteins detected) (Homo sapiens, UniProt P62937) (P62937 whole entry): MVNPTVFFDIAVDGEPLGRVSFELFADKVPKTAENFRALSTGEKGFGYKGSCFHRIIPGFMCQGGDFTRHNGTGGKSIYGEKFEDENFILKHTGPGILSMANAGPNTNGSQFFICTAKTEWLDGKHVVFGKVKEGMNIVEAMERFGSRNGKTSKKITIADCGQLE

[12] = molecular target: proteins of U3A human fibrosarcoma cells (4462 proteins detected) (Homo sapiens, UniProt Q9P0K7); conditions: protein RAI14; soluble abundance after heat, U3A cells
[13] = molecular target: proteins of U3A human fibrosarcoma cells (4462 proteins detected) (Homo sapiens, UniProt O43683); conditions: protein BUB1; U3A cells
[14] = molecular target: proteins of U3A human fibrosarcoma cells (4462 proteins detected) (Homo sapiens, UniProt O60291); conditions: protein MGRN1; U3A, 10 μM, 2 h
Sequence of proteins of U3A human fibrosarcoma cells (4462 proteins detected) (Homo sapiens, UniProt O60291) (O60291 whole entry): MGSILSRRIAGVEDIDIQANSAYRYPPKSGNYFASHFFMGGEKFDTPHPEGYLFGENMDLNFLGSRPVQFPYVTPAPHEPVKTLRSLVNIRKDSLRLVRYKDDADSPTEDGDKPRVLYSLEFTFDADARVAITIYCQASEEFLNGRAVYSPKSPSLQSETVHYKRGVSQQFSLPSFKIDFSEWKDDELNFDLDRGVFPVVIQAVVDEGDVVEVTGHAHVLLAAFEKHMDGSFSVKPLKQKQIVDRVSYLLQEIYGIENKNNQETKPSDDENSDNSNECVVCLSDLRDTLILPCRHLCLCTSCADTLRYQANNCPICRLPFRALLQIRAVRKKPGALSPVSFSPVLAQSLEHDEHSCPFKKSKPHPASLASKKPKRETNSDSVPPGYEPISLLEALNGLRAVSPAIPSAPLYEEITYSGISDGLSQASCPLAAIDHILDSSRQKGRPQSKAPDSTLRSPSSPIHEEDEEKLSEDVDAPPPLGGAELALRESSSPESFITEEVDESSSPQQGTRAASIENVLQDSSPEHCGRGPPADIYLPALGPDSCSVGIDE

[15] = molecular target: proteins of U3A human fibrosarcoma cells (4462 proteins detected) (Homo sapiens, UniProt Q14353); conditions: protein GAMT; U3A, 10 μM, 2 h
[16] = molecular target: proteins of U3A human fibrosarcoma cells (4462 proteins detected) (Homo sapiens, UniProt O94925); conditions: protein GLS; U3A, 10 μM, 2 h
[17] = molecular target: proteins of U3A human fibrosarcoma cells (4462 proteins detected) (Homo sapiens, UniProt Q9UJX6); conditions: protein ANAPC2; soluble abundance after heat, U3A cells
[18] = molecular target: proteins of U3A human fibrosarcoma cells (4462 proteins detected) (Homo sapiens, UniProt Q9NVZ3); conditions: protein NECAP2; U3A cells
[19] = molecular target: proteins of U3A human fibrosarcoma cells (4462 proteins detected) (Homo sapiens, UniProt Q9NVH2); conditions: protein INTS7; soluble abundance after heat, U3A cells
[20] = molecular target: proteins of U3A human fibrosarcoma cells (4462 proteins detected) (Homo sapiens, UniProt Q9NX58); conditions: protein LYAR; U3A cells
Sequence of proteins of U3A human fibrosarcoma cells (4462 proteins detected) (Homo sapiens, UniProt Q9NX58) (Q9NX58 whole entry): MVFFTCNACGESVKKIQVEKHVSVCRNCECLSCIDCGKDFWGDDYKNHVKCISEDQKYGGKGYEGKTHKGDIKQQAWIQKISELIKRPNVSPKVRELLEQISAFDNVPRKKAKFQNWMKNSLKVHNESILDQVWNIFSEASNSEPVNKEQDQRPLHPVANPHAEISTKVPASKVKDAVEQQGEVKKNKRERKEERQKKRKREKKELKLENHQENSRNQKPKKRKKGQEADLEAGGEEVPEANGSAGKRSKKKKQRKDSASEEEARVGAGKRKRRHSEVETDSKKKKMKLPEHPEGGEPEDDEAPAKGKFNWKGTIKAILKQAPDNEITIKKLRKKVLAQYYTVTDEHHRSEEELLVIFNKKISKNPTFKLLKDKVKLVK

[21] = molecular target: proteins of U3A human fibrosarcoma cells (4462 proteins detected) (Homo sapiens, UniProt P36776); conditions: protein LONP1; U3A cells
[22] = molecular target: proteins of U3A human fibrosarcoma cells (4462 proteins detected) (Homo sapiens, UniProt Q9UKX7); conditions: protein NUP50; soluble abundance after heat, U3A cells
[23] = molecular target: proteins of U3A human fibrosarcoma cells (4462 proteins detected) (Homo sapiens, UniProt Q96GM5); conditions: protein SMARCD1; U3A cells
[24] = molecular target: proteins of U3A human fibrosarcoma cells (4462 proteins detected) (Homo sapiens, UniProt Q6ZQQ6); conditions: protein WDR87; U3A, 10 μM, 2 h
[25] = molecular target: proteins of U3A human fibrosarcoma cells (4462 proteins detected) (Homo sapiens, UniProt Q92575); conditions: protein UBXN4; U3A cells
[26] = molecular target: proteins of U3A human fibrosarcoma cells (4462 proteins detected) (Homo sapiens, UniProt Q32P44); conditions: protein EML3, U3A cells
[27] = molecular target: proteins of U3A human fibrosarcoma cells (4462 proteins detected) (Homo sapiens, UniProt Q06546); conditions: protein GABPA; U3A cells
[28] = molecular target: proteins of U3A human fibrosarcoma cells (4462 proteins detected) (Homo sapiens, UniProt Q9BYG3); conditions: protein NIFK; soluble abundance after heat, U3A cells
[29] = molecular target: proteins of U3A human fibrosarcoma cells (4462 proteins detected) (Homo sapiens, UniProt Q8TDP1); conditions: protein RNASEH2C, U3A cells

Sequence of proteins of U3A human fibrosarcoma cells (4462 proteins detected) (Homo sapiens, UniProt P46939) (P46939 whole entry): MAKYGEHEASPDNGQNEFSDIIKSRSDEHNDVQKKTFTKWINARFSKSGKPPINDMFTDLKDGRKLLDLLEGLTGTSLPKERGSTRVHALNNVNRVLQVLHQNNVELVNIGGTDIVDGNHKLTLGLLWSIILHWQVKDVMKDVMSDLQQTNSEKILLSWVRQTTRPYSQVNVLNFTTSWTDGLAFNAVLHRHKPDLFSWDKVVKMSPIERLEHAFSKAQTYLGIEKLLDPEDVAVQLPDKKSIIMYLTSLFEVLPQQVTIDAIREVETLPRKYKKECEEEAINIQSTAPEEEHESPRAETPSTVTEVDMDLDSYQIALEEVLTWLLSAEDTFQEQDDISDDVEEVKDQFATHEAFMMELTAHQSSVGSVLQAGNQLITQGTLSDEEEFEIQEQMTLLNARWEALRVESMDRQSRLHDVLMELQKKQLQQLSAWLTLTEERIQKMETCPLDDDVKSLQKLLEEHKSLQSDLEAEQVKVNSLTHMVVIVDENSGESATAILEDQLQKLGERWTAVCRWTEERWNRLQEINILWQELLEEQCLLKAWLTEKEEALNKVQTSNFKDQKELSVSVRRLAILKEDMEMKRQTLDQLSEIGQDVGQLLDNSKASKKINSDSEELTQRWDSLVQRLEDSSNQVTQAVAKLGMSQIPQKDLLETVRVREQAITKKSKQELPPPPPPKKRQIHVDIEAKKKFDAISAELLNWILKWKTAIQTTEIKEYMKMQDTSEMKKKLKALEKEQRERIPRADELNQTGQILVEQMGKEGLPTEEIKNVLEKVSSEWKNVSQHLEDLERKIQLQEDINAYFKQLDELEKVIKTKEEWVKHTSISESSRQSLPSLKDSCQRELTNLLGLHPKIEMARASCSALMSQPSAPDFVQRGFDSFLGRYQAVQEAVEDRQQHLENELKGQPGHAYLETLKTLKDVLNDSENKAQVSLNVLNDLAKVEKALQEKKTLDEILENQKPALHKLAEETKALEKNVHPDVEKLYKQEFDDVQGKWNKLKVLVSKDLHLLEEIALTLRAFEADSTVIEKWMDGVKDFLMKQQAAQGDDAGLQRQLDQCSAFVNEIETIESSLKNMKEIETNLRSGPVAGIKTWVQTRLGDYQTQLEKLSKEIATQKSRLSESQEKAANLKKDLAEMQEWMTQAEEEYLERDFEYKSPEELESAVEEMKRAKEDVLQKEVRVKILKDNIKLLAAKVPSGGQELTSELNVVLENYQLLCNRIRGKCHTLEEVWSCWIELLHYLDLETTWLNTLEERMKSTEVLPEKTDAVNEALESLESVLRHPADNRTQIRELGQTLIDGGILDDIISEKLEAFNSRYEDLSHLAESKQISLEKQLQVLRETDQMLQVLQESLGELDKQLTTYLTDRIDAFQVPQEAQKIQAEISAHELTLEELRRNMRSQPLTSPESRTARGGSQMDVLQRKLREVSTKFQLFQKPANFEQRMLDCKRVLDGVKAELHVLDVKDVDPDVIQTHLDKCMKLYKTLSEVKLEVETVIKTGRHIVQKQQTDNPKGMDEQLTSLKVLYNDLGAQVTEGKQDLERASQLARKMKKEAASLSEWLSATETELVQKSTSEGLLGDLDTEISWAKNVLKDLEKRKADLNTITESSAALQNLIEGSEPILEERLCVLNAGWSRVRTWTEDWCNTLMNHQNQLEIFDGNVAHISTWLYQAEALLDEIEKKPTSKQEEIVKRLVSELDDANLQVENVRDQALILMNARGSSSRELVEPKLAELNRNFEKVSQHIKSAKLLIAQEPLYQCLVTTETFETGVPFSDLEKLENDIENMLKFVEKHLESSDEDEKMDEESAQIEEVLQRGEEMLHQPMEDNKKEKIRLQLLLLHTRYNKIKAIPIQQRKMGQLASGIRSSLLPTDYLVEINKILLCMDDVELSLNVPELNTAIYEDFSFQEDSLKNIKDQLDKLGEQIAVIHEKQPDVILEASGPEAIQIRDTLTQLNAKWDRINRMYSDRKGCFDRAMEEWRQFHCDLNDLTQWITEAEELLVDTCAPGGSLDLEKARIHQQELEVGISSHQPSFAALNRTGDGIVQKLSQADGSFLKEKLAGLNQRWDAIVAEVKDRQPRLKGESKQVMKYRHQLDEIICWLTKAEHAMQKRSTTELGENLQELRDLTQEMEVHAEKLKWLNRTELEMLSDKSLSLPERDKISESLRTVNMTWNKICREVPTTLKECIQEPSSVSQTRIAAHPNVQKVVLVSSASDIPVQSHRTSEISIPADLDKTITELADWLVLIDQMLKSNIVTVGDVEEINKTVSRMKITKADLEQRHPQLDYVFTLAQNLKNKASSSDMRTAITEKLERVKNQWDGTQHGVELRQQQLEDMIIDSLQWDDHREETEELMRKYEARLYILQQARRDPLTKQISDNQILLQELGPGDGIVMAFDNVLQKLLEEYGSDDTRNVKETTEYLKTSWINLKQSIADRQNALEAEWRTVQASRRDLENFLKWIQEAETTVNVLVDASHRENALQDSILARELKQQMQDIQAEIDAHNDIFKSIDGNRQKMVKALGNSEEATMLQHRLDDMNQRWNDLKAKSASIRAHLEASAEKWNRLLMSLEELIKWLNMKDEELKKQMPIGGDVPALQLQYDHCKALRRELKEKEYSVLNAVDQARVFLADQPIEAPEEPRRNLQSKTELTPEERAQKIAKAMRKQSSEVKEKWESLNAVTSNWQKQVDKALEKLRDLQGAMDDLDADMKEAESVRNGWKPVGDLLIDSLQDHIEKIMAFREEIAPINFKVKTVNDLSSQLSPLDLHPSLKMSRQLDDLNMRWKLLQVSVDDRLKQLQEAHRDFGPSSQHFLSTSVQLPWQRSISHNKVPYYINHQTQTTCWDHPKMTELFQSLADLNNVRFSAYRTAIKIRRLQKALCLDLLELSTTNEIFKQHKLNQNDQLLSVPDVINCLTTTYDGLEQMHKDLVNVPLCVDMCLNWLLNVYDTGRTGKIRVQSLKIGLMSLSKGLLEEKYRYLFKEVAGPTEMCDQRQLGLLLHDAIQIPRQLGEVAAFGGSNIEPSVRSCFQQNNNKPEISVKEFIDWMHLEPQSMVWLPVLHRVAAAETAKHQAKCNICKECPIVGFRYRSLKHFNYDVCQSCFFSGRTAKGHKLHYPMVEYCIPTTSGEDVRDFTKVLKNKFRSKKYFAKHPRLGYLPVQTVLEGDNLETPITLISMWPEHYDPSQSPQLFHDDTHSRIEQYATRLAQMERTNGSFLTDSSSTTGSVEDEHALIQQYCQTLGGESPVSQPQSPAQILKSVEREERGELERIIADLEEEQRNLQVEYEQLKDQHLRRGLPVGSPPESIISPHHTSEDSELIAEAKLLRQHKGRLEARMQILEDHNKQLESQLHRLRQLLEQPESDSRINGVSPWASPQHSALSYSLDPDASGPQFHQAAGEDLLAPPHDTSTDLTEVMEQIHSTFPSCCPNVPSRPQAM

SMILES: CCc1nc(N)nc(N)c1-c1ccc(Cl)cc1 [pyrimethamine]
- Log2 (PYR/DMSO) [1]: 0.14
- Log2 (PYR/DMSO) [2]: 0.13
- Log2 (PYR/DMSO) [3]: 0.17
- Log2 (PYR/DMSO) [4]: 0.15
- Log2 (PYR/DMSO) [5]: -0.04
- Log2 (PYR/DMSO) [6]: 0.19
- Log2 (PYR/DMSO) [7]: 0.23
- Log2 (PYR/DMSO) [8]: -0.03
- Log2 (PYR/DMSO) [9]: 0.21
- Log2 (PYR/DMSO) [10]: 0.21
- Log2 (PYR/DMSO) ([11]; U3A cells): -0.03
- Log2 (PYR/DMSO), PPIA ([11]; U3A, 10 μM, 2 h): -0.14
- Log2 (PYR/DMSO) [12]: 0.15
- Log2 (PYR/DMSO) [13]: 0.16
- Log2 (PYR/DMSO), MGRN1 [14]: -0.25
- Log2 (PYR/DMSO), GAMT [15]: -0.27
- Log2 (PYR/DMSO), GLS [16]: 0.24
- Log2 (PYR/DMSO) [17]: 0.14
- Log2 (PYR/DMSO) [18]: 0.21
- Log2 (PYR/DMSO) [19]: 0.15
- Log2 (PYR/DMSO) [20]: 0.18
- Log2 (PYR/DMSO) [21]: 0.22
- Log2 (PYR/DMSO) [22]: 0.15
- Log2 (PYR/DMSO) [23]: 0.17
- Log2 (PYR/DMSO), WDR87 [24]: -0.16
- Log2 (PYR/DMSO) [25]: 0.18
- Log2 (PYR/DMSO) [26]: -0.05
- Log2 (PYR/DMSO) [27]: 0.19
- Log2 (PYR/DMSO) [28]: 0.14
- Log2 (PYR/DMSO) [29]: -0.03
